Experimental data published in patent US6107549A, “Genetically engineered plant resistance to thiazopyr and other pyridine herbicides” (Monsanto Company, priority 1999, dated 2000).

Legend:
[1] = target: T1, RLE3 (Oryctolagus cuniculus, UniProt P12337, A196R/H30K); test: Esterase activity of RLE3 cDNA expressed in insect cells; assay type: biochemical, rabbit; conditions: culture media from SF9 cells containing RLE3 cDNA
T1 construct: 19-residue synthetic ER signal peptide (design based on the homologous rat esterase, Robbi et al. 1990; Ala added after Met) (N); made in house; host or cells: Spodoptera frugiperda SF9 cells, baculovirus
T1 sequence (P12337 with tags, fused parts or gaps H30K/A196R): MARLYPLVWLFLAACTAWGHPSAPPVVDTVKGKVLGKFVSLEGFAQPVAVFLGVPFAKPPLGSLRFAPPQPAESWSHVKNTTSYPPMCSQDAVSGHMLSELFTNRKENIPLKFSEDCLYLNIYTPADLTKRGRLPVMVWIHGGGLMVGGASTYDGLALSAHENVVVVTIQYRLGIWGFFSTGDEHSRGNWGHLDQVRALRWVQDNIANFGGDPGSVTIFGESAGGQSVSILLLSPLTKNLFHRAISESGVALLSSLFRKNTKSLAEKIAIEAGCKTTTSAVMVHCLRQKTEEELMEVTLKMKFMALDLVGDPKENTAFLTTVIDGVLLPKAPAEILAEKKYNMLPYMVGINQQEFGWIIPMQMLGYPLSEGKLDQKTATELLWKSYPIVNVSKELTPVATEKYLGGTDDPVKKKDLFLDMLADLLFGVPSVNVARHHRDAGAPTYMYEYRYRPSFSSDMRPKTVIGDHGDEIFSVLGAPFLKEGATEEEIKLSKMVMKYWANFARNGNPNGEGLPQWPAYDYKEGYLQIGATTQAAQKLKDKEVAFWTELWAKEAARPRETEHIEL
Protocol: (§1) Esterase activity assays. Esterase activity was measured in vitro by conversion of either [^14 C]thiazopyr or [^14 C]MON 14300 to their corresponding monoacid. Pyridine-esterase activity was assayed during protein purification and from tissue extracts of transgenic plants. The homogenizing buffer for plant tissues consisted of 100 mM Tris pH 8.0, 1 mM EDTA, 1 mM DTT, and 10% glycerol in water. Plant tissues (1 g/ml buffer) including leaves, seeds, flowers, seedlings, etc. were homogenized in conical centrifuge tubes using a spinning pestle at 4° C. Following centrifugation (12,000× g), the supernatant (250 μl) was assayed immediately for esterase activity by incubation with [^14 C]thiazopyr or [^14 C]MON 14300 (4 μg) in 0.1 M Tris pH 8.0 buffer (50 μl) at 37° C. The reaction was sampled (100 μL) at various times (0.5 to 100 hr) to generate a kinetic profile of monoacid formation. The reaction was stopped by addition of 1% trifluoroacetic acid in acetonitrile (v/v, 150 μl). Following centrifugation (12,000× g for 3 min), the supernatant was analyzed by HPLC/RAD (radioactivity detection) to resolve the monoacid from the parent herbicide and other metabolites. Control reactions in the absence of the esterase recovered un-reacted thiazopyr or MON 14300 for the duration of experiments. Esterase activity was also assayed during protein purification following a similar procedure except a single time-point (1-2 hrs) of incubation was selected within the linear range of reaction. In vitro assays also employed three commonly used calorimetric (p-nitrophenyl butyrate) or fluorescent (4-methyl umbelliferyl butyrate and 5-bromo-4-chloro-3-indolylacetate) substrates. These substrates are useful in rapidly and qualitatively detecting general esterase activity.
Expression of RLE1 and RLE3 cDNAs in insect cells. Mature rabbit liver esterases are glycoproteins which reside in the lumen of the endoplasmic reticulum (ER) (Korza et al., 1988). […]

[2] = target: T2, pyridine-esterase (Oryctolagus cuniculus, UniProt P12337, A196R/H30K); test: Esterase activity in leaf extracts from R0 tomato and tobacco plants; assay type: biochemical, rabbit; conditions: R0 tomato and tobacco plants expressing the 60 kD esterase
T2 construct: made in house; host or cells: transgenic tobacco (Samson) and tomato (UC82B) plants, tissue extracts
T2 sequence (P12337 19-565 H30K/A196R): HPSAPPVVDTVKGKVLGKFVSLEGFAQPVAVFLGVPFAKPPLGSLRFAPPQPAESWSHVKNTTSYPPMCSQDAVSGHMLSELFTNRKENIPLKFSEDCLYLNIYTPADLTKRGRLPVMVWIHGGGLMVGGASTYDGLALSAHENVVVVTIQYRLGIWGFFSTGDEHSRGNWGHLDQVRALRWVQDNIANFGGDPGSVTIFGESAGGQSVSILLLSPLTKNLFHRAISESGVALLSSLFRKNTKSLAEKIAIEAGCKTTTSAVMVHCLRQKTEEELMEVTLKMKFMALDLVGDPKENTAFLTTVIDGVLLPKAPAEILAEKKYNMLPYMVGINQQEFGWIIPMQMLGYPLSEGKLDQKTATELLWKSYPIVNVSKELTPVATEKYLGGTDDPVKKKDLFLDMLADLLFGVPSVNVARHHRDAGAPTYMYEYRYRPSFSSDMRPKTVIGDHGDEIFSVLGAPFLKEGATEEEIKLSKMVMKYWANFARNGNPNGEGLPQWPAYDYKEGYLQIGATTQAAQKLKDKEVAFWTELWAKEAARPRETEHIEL
Protocol: as §1, with “Esterase activity was also assayed during protein purification following a similar procedure except a single time-point (1-2 hrs) of incubation was selected within the linear range of reaction. In vitro assays also employed three commonly used calorimetric (p-nitrophenyl butyrate) or fluorescent (4-methyl umbelliferyl butyrate and 5-bromo-4-chloro-3-indolylacetate) substrates. These substrates are useful in rapidly and qualitatively detecting general esterase activity.” left out

| Structure (SMILES) | esterase activity against substrate [1] | hydrolysis by leaf extracts [2] |
| --- | --- | --- |
| COC(=O)c1c(C(F)F)nc(C(F)(F)F)c(C(=O)n2cccn2)c1CC(C)C [MON 14300] | demonstrated esterase activity | did demonstrate the hydrolysis |
| COC(=O)c1c(C(F)F)nc(C(F)(F)F)c(C2=NCCS2)c1CC(C)C [thiazopyr] | demonstrated esterase activity | did demonstrate the hydrolysis |
